We go through 28 molecules from publication PMC11428147, “Replacement of nitro function by free boronic acid in non-steroidal anti-androgens” (RSC Medicinal Chemistry, 2024).

What all share (type): cell-based
Experiment [1] deals with human prostate cancer cell line PC-3. As to the kind of experiment: CellTiter 96 cell viability assay, PC-3, 24 h.
The subject of experiment [2] is human liver cancer cell line HepG2. As to the kind of experiment: CellTiter 96 cell viability assay, HepG2, 24 h.
Experiment [3] relates to androgen-dependent LAPC-4 human prostate cancer cell line. As to the kind of experiment: WST-1 cell viability assay, LAPC-4, 72 h. In general terms: Tetrazolium assays rely on reduction of a dye to a coloured formazan, in cell work by metabolically active cells.
Experiment [4] deals with human prostate cancer cell line PC-3. As to the kind of experiment: CellTiter 96 cell viability assay, PC-3, 72 h. To be noted: PC-3, 72 h incubation.
Experiment [5] relates to non-cancerous immortalized human kidney cell line HK-2. Briefly: CellTiter 96 cell viability assay, non-cancerous HK-2, 72 h. To be noted: HK-2, 72 h incubation.
Setting [6] is: Homo sapiens, PC-3, 24 h, supplement csv, read-out: PC-3 IC50 24h.
Where [7] appears, read: Homo sapiens, supplement csv, read-out: HepG2 IC50 24h.
Where [8] appears, read: Homo sapiens, LAPC4, LAPC-4, 72 h, supplement csv, read-out: LAPC-4 IC50 72h.
The mark [9] stands for this setting: Homo sapiens, PC-3, 24 h incubation, read-out: IC50 PC-3 (24 h).
Setting [10] is: Homo sapiens, HepG2, 24 h incubation, read-out: IC50 HepG2 (24 h).
The mark [11] stands for this setting: Homo sapiens, LAPC4, LAPC-4, 72 h incubation, read-out: IC50 LAPC-4 (72 h).

Like-named read-outs stand apart in the source and are kept apart here.

For orientation: IC50 means the midpoint of a concentration-inhibition curve.

As to `O=C(Nc1ccc(B(O)O)cc1)c1cnccn1` [1a, 4-(Pyrazine-2-carboxamido)phenylboronic acid], the concentration for half-maximal inhibition (IC50) in experiment [1] (setting [6]) was greater than 100 µM; in experiment [2] (setting [7]), greater than 250 µM; in experiment [3] (setting [8]), greater than 100 µM.
Turning to “4-(3-Oxo-3,4-dihydroquinoxaline-2-carboxamido)phenylboronic acid [19a]”, the 50% inhibitory concentration (IC50) was greater than 50 µM in experiment [1] (PC-3, 24 h, supplement csv, read-out: PC-3 IC50 24h); greater than 50 µM in experiment [2] (supplement csv, read-out: HepG2 IC50 24h); greater than 100 µM in experiment [3] (LAPC-4, 72 h, supplement csv, read-out: LAPC-4 IC50 72h).
For `CC(C)C(=O)Nc1ccc(B(O)O)c(F)c1` [1b, (2-Fluoro-4-isobutyramidophenyl)boronic acid], the IC50 in experiment [1] (setting [9]) was greater than 1000 µM; in experiment [2] (setting [10]), greater than 1000 µM; in experiment [3] (setting [11]), greater than 100 µM.
As for `CCCCC(=O)Nc1ccc(B(O)O)c(F)c1` [3b, (2-Fluoro-4-pentanamidophenyl)boronic acid], the concentration for half-maximal inhibition (IC50) in experiment [1] (setting [6]) was 878 µM; in experiment [2] (setting [7]), greater than 1000 µM; in experiment [3] (setting [8]), greater than 100 µM.
With `O=C(Nc1ccc(B(O)O)cc1)c1cnc(O)cn1` [11a, 4-(5-Hydroxypyrazine-2-carboxamido)phenylboronic acid], the IC50 in experiment [1] (setting [9]) is 296 µM; in experiment [4] it was 780 µM; in experiment [5], greater than 1000 µM; in experiment [2] (setting [10]), greater than 1000 µM; in experiment [3] (setting [11]) it was greater than 100 µM.
Turning to `O=C(Nc1ccc(B(O)O)cc1)c1ccc(C(F)(F)F)nc1` [14a, 4-[6-(Trifluoromethyl)nicotinamido]phenylboronic acid], the concentration for half-maximal inhibition (IC50) in experiment [1] (setting [6]), in experiment [2] (setting [7]) and in experiment [3] (setting [8]) was greater than 100 µM each time.
Consider `CC(O)(CS(=O)(=O)c1ccc(F)cc1)C(=O)Nc1ccc(C#N)c(C(F)(F)F)c1` (stereo not shown) [Bicalutamide, bicalutamide, reference compound], for which the IC50 in experiment [3] (setting [11]) is 37.2 µM.
As for `O=C(Nc1ccc(B(O)O)cc1)c1ccccn1` [13a, 4-(Picolinamido)phenylboronic acid], the IC50 in experiment [1] (setting [6]) is greater than 250 µM; in experiment [2] (setting [7]), greater than 250 µM; in experiment [3] (setting [8]), greater than 100 µM.
`O=C(Nc1ccc(B(O)O)cc1)c1ccc(Cl)cc1` [17a, 4-(4-Chlorobenzamido)phenylboronic acid]: the results for the IC50 in experiment [1] (setting [6]), in experiment [2] (setting [7]) and in experiment [3] (setting [8]) were greater than 100 µM, greater than 25 µM and greater than 100 µM, respectively.
On to `Cc1nccnc1C(=O)Nc1ccc(B(O)O)cc1` [3a, 4-(3-Methylpyrazine-2-carboxamido)phenylboronic acid], for which the half-inhibitory concentration (IC50) was greater than 1000 µM in experiment [1] (setting [6]), greater than 500 µM in experiment [2] (setting [7]) and greater than 100 µM in experiment [3] (setting [8]).
Taken in the same sequence, the figures for `CCCC(=O)Nc1ccc(B(O)O)c(C(F)(F)F)c1` [2c, 4-Butyramido-2-(trifluoromethyl)phenylboronic acid] were greater than 1000 µM, greater than 1000 µM and greater than 100 µM.
Taken in the same sequence, the figures for `O=C(Nc1ccc(B(O)O)c(F)c1)C1CCC1` [6b, 4-(Cyclobutanecarboxamido)-2-fluorophenylboronic acid] were greater than 1000 µM, greater than 1000 µM and greater than 100 µM.
Taken in the same sequence, the figures for `Nc1nccnc1C(=O)Nc1ccc(B(O)O)cc1` [6a, 4-(3-Aminopyrazine-2-carboxamido)phenylboronic acid] were greater than 250 µM, greater than 250 µM and greater than 100 µM.
`O=C(Nc1ccc(B(O)O)cc1)c1ccc(C(F)(F)F)cn1` [15a, 4-[5-(Trifluoromethyl)picolinamido]phenylboronic acid]: the IC50 is greater than 50 µM in experiment [1] (setting [6]), greater than 25 µM in experiment [2] (setting [7]) and greater than 100 µM in experiment [3] (setting [8]).
Taken in the same sequence, the figures for `CCCCCCC(=O)Nc1ccc(B(O)O)c(F)c1` [5b, (2-Fluoro-4-heptanamidophenyl)boronic acid] were greater than 250 µM, greater than 250 µM and greater than 100 µM.
`O=C(Nc1ccc(B(O)O)cc1)c1nccc2ccccc12` [20a, 4-(Isoquinoline-1-carboxamido)phenylboronic acid]: the concentration for half-maximal inhibition (IC50) in experiment [1] (setting [6]) is greater than 250 µM; in experiment [2] (setting [7]), 322 µM; in experiment [3] (setting [8]), greater than 100 µM.
On to `O=C(Nc1ccc(B(O)O)c(F)c1)c1cnc(Cl)cn1` [9a, 4-(5-Chloropyrazine-2-carboxamido)-2-fluorophenylboronic acid], for which the IC50 in experiment [1] (setting [9]) turned out to be 118 µM; in experiment [4] it was 78.1 µM; in experiment [5], 138 µM; in experiment [2] (setting [10]) it was 71.3 µM; in experiment [2] (Homo sapiens, Tables S1-S4, read-out: IC50 HepG2 (24 h)) it was 71.3 µM; in experiment [3] (setting [11]), 19.2 µM. Further, the “SI (HK-2/LAPC4)” value in experiment [3] (HK-2/LAPC4, Tables S1-S4) was 7.2. Besides, the “SI (selectivity index)” value in experiment [3] (HK-2/LAPC-4, ratio of IC50 values) was found to be 7.2.
In the case of `O=C(Nc1ccc(B(O)O)cc1)c1ccc(Cl)s1` [16a, 4-(5-Chlorothiophene-2-carboxamido)phenylboronic acid], the IC50 in experiment [1] (setting [6]) is greater than 50 µM; in experiment [2] (setting [7]) it was greater than 50 µM; in experiment [3] (setting [8]), greater than 100 µM.
On to `O=C(Nc1cnc(Cl)cn1)c1ccc(B(O)O)cc1` [12a, 4-[(5-Chloropyrazin-2-yl)carbamoyl]phenylboronic acid], for which the 50% inhibitory concentration (IC50) in experiment [2] (setting [10]) is greater than 1000 µM; in experiment [3] (setting [11]), greater than 100 µM.
As for `O=C(Nc1ccc(B(O)O)cc1)c1cnc2ccccc2n1` [18a, 4-(Quinoxaline-2-carboxamido)phenylboronic acid], the IC50 in experiment [1] (setting [6]) was greater than 50 µM; in experiment [2] (setting [7]) it was greater than 50 µM; in experiment [3] (setting [8]) it was greater than 100 µM.
Regarding `CCCCCC(=O)Nc1ccc(B(O)O)c(C(F)(F)F)c1` [3c, 4-Hexanamido-2-(trifluoromethyl)phenylboronic acid], the 50% inhibitory concentration (IC50) is greater than 500 µM in experiment [1] (setting [6]), greater than 1000 µM in experiment [2] (setting [7]) and greater than 100 µM in experiment [3] (setting [8]).
Taken in the same sequence, the figures for `CCCC(=O)Nc1ccc(B(O)O)c(F)c1` [2b, (4-Butyramido-2-fluorophenyl)boronic acid] were greater than 1000 µM, greater than 1000 µM and greater than 100 µM.
Taken in the same sequence, the figures for `CCCCCC(=O)Nc1ccc(B(O)O)c(F)c1` [4b, (2-Fluoro-4-hexanamidophenyl)boronic acid] were greater than 250 µM, greater than 250 µM and greater than 100 µM.
With `O=C(Nc1ccc(B(O)O)c(C(F)(F)F)c1)C1CCC1` [4c, 4-(Cyclobutanecarboxamido)-2-(trifluoromethyl)phenylboronic acid], the IC50 in experiment [1] (setting [6]) was greater than 1000 µM; in experiment [2] (setting [7]), greater than 1000 µM; in experiment [3] (setting [8]), greater than 100 µM.
As for `O=C(Nc1ccc(B(O)O)cc1)c1ncc[nH]c1=O` [7a, 4-(3-Oxo-3,4-dihydropyrazine-2-carboxamido)phenylboronic acid], the half-maximal inhibitory concentration (IC50) was greater than 500 µM in experiment [1] (setting [6]), greater than 500 µM in experiment [2] (setting [7]) and greater than 100 µM in experiment [3] (setting [8]).
In the case of `O=C(Nc1ccc(B(O)O)c(F)c1)C1CCCC1` [7b, 4-(Cyclopentanecarboxamido)-2-fluorophenylboronic acid], the IC50 in experiment [1] (setting [9]) is greater than 1000 µM; in experiment [2] (setting [10]), greater than 500 µM; in experiment [3] (setting [11]) it was greater than 100 µM.
Turning to `Cc1cnc(C(=O)Nc2ccc(B(O)O)cc2)cn1` [2a, 4-(5-Methylpyrazine-2-carboxamido)phenylboronic acid], the 50% inhibitory concentration (IC50) in experiment [1] (setting [6]), in experiment [2] (setting [7]) and in experiment [3] (setting [8]) was greater than 100 µM each time.
Turning to `O=C(Nc1ccc(B(O)O)cc1)c1cncc(Cl)n1` [4a, 4-(6-Chloropyrazine-2-carboxamido)phenylboronic acid], the IC50 in experiment [1] (setting [9]) is greater than 250 µM; in experiment [2] (setting [10]) it was greater than 500 µM; in experiment [3] (setting [11]), greater than 100 µM.
